Source: patent publication US20100233272A1 (priority 2007, published 2010)
Values after ≈ are worked out from the molar mass of the structure shown.

Columns and labels:
[1] = in vitro membrane permeation test (maximum drug flux); type: physicochemical; conditions: MFD feed solution 1000 μg/mL, permeate 20 wt % decanol in decane, 37° C., fit 0 to 60 minutes
Protocol: The NP composition was evaluated in vitro using a membrane permeation test as follows. An Accurel® PP 1 E microporous polypropylene membrane was obtained from Membrana GmbH (Wuppertal, Germany). The membrane was washed in isopropyl alcohol and rinsed in methanol in a sonicating bath for one minute at ambient temperature, and then allowed to air dry at ambient temperature. The feed side of the membrane was then plasma-treated to render it hydrophilic by placing a sample of the membrane in a plasma chamber. The atmosphere of the plasma chamber was saturated with water vapor at a pressure of 550 mTorr. A plasma was then generated using radio frequency (RF) power inductively coupled into the chamber via annular electrodes at a power setting of 50 Watts for 45 seconds. The contact angle of a drop of water placed on the surface of the plasma-treated membrane was about 40°. […]
To form the feed solution, a 13.33 mg sample of the solid NP composition was weighed into the feed reservoir. […] Samples were then diluted in 250 μL IPA and analyzed using HPLC. […] UV absorbance was measured at 254 nm.
The maximum flux of drug across the membrane (in units of μg/cm^2-min) was determined by performing a least-squares fit to the concentration versus time data from 0 to 60 minutes to obtain the slope, multiplying the slope by the permeate volume (5 mL), and dividing by the membrane area (4.9 cm^2).

[2] = in vitro dissolution test of solubility-improved forms in MFD solution (microcentrifuge); type: physicochemical; conditions: MFD solution (PBS pH 6.5, 0.5 wt % NaTC/POPC), 37° C., 1000 μgA/mL if all dissolved
Protocol: An in vitro dissolution test was used to determine the dissolution performance of the HPMCAS SDD. […] The test was run in duplicate. The test tubes were placed in a 37° c. temperature-controlled chamber, and an MFD solution consisting of 1.8 mL PBS at pH 6.5 and 290 mosm/kg, containing 7.3 mm sodium taurocholic acid and 1.4 mm of 1-palmitoyl-2-oleyl-sn-glycero-3-phosphocholine (0.5 wt % NaTC/POPC) was added to each tube. The samples were mixed with a vortex mixer for one minute, then centrifuged at 13,000 g and 37° C. for one minute. The resulting supernatant solution was then sampled and diluted 1:5 (by volume) with methanol and analyzed by high-performance liquid chromatography (HPLC). HPLC analysis was performed using a Zorbax SB-C8 column. The mobile phase consisted of 45% 5 mm triethanolamine, adjusted to pH 7.0, and 55% acetonitrile, with a flow rate of 1.5 mL/min. UV absorbance was measured at 254 nm. The contents of each tube were mixed on the vortex mixer and allowed to stand undisturbed at 37° C. until the next sample was taken. Samples were collected at 4, 10, 20, 40, 90, and 1200 minutes.
The concentrations of drug obtained in these samples were used to determine the maximum dissolved concentration of drug and the area under the concentration-versus-time curve during the initial 90 minutes (MDC90 and DAUC90, respectively). […]

physchem = conditions: pH 7, aqueous buffer
[3] = GastroPlus (ACAT) simulation of absorption and pharmacokinetics; conditions: estimated based on clinical data
Excerpt: GastroPlus™ is a computer program that simulates absorption and pharmacokinetics for orally dosed drugs.
GastroPlus™ was used to simulate the absorption and pharmacokinetics of the reference and test formulations.
The drug release profiles were used by the software to calculate the drug concentration in each compartment. The estimated human permeability data were computed using a modification of the human fasted log D absorption model to account for permeability. The model then calculated the fraction of the dose absorbed based on the ACAT model using drug concentration, permeability, surface area, and transit time in each compartment. Pharmacokinetic parameters, e.g. volume of distribution, clearance, and micro-constants were added to the software in the pharmacokinetic page, which enabled the software to calculate plasma concentration—time curves.
In the physiology page, a user-supplied physiology file was provided to the program as an input file, consisting of the following transit times for each compartment (hr): 0.1, 0.25, 0.5, 0.5, 1.0, 1.0, 1.0, 8.0, and 24.0 hr.
The model was used to evaluate the performance of the dosage forms of the invention.

SMILES	Maximum Drug Flux [1]	DAUC90 (area under the concentration-versus-time curve during the initial 90 minutes) [2]	MDC90 (maximum dissolved concentration of drug during the initial 90 minutes) [2]	solubility (physchem)	human permeability (Peff) [3]
Cc1ccc(-c2cc(C(F)(F)F)nn2-c2ccc(S(N)(=O)=O)cc2)cc1 [Crystalline celecoxib, celecoxib]	1.0 μg/cm^2-min	4100 min*μgA/mL	60 μgA/mL	–	–
Cc1ccc(-c2cc(C(F)(F)F)nn2-c2ccc(S(N)(=O)=O)cc2)cc1 [celecoxib]	–	–	–	0.0116 mg/mL (≈ 30.4 µM)	1126.2 nm/s
